{"source": "patent WO2006030898A1", "about": "“Aldose reductase inhibitor” (Suntory Ltd, priority 2004, dated 2006)", "origin": "cited, not measured here", "target": "aldose reductase (Homo sapiens, UniProt P15121)", "conditions": "flavonoid glycosides; no own test described", "data": [{"molecule": "O=c1c(O[C@@H]2O[C@H](CO)[C@@H](O)[C@H](O)[C@H]2O)c(-c2ccc(O)c(O)c2)oc2cc(O)cc(O)c12", "note": "[isoquercitrin]", "values": [{"measurement": "aldose reductase inhibitory action (in words)", "value": "have an aldose reductase inhibitory action"}]}]}
